Data published in the NIST ThermoML archive (doi:10.1016/j.tca.2009.02.022).
± gives the expanded uncertainty stated by the source.

What was measured:
[1] = 303.15 K, 101.33 kPa, Liquid; for viscosity: Capillary tube (Ostwald / Ubbelohde) method; for mass density: Vibrating tube method
[2] = xn = mol fraction of the nth substance listed; settings: 303.15 K, 101 kPa, Liquid; for viscosity: Capillary tube (Ostwald / Ubbelohde) method; for mass density: Vibrating tube method

CCCCO [butan-1-ol]
[1]
Settings | mass density [kg/m3] | viscosity [mPa·s]
– | 801.9 ± 0.17 | 2.25 ± 0.015

C1CCCCC1 [cyclohexane]
[1]
Settings | mass density [kg/m3] | viscosity [mPa·s]
– | 769.12 ± 0.13 | 0.821 ± 0.006

CCOC(C)=O [ethyl acetate]
[1]
Settings | mass density [kg/m3] | viscosity [mPa·s]
– | 888.5 ± 0.08 | 0.4 ± 0.005

CCOC(C)=O [ethyl acetate] + CCCCO
[2]
Settings | mass density [kg/m3] | viscosity [mPa·s]
x2 = 0.1411 | 875.69 ± 0.14 | 0.467 ± 0.005
x2 = 0.3184 | 859.95 ± 0.13 | 0.563 ± 0.005
x2 = 0.3797 | 854.67 ± 0.12 | 0.609 ± 0.006
x2 = 0.4659 | 847.1 ± 0.12 | 0.673 ± 0.006
x2 = 0.5634 | 838.65 ± 0.12 | 0.766 ± 0.006
x2 = 0.6782 | 828.8 ± 0.11 | 0.92 ± 0.007
x2 = 0.7595 | 821.86 ± 0.11 | 1.076 ± 0.008
x2 = 0.8312 | 815.82 ± 0.11 | 1.287 ± 0.009
x2 = 0.9291 | 807.64 ± 0.11 | 1.736 ± 0.012

CCCCCCCCO [octan-1-ol]
[1]
Settings | mass density [kg/m3] | viscosity [mPa·s]
– | 817.52 ± 0.17 | 6.19 ± 0.039

CCCCCCCCO [octan-1-ol] + C1CCCCC1
[2]
Settings | mass density [kg/m3] | viscosity [mPa·s]
x1 = 0.2008 | 780.75 ± 0.12 | 1.242 ± 0.008
x1 = 0.3755 | 789.9 ± 0.13 | 1.792 ± 0.011
x1 = 0.5205 | 796.98 ± 0.13 | 2.4 ± 0.015
x1 = 0.6054 | 800.89 ± 0.14 | 2.847 ± 0.017
x1 = 0.7044 | 805.34 ± 0.14 | 3.46 ± 0.021
x1 = 0.7758 | 808.38 ± 0.15 | 3.983 ± 0.025
x1 = 0.8541 | 811.63 ± 0.15 | 4.633 ± 0.029
x1 = 0.901 | 813.56 ± 0.16 | 5.089 ± 0.032
x1 = 0.9553 | 815.75 ± 0.16 | 5.664 ± 0.036

CCCCCCCCO [octan-1-ol] + CCOC(C)=O
[2]
Settings | mass density [kg/m3] | viscosity [mPa·s]
x1 = 0.0809 | 878.16 ± 0.15 | 0.537 ± 0.005
x1 = 0.162 | 869.16 ± 0.14 | 0.68 ± 0.006
x1 = 0.3257 | 854.09 ± 0.13 | 1.028 ± 0.007
x1 = 0.4413 | 845.4 ± 0.12 | 1.314 ± 0.009
x1 = 0.5431 | 838.72 ± 0.12 | 1.596 ± 0.01
x1 = 0.6637 | 831.83 ± 0.11 | 2.04 ± 0.013
x1 = 0.7062 | 829.6 ± 0.11 | 2.26 ± 0.014
x1 = 0.8574 | 822.7 ± 0.11 | 3.545 ± 0.023
x1 = 0.9251 | 820.07 ± 0.11 | 4.563 ± 0.029

CCCCCO [pentan-1-ol]
[1]
Settings | mass density [kg/m3] | viscosity [mPa·s]
– | 807.11 ± 0.17 | 2.839 ± 0.019

CCCCCO [pentan-1-ol] + CCOC(C)=O
[2]
Settings | mass density [kg/m3] | viscosity [mPa·s]
x1 = 0.1095 | 877.42 ± 0.14 | 0.474 ± 0.005
x1 = 0.2164 | 867.46 ± 0.13 | 0.541 ± 0.005
x1 = 0.3291 | 857.43 ± 0.13 | 0.626 ± 0.006
x1 = 0.4303 | 848.83 ± 0.12 | 0.722 ± 0.006
x1 = 0.5202 | 841.5 ± 0.12 | 0.829 ± 0.007
x1 = 0.6103 | 834.44 ± 0.11 | 0.97 ± 0.007
x1 = 0.7187 | 826.3 ± 0.11 | 1.211 ± 0.008
x1 = 0.8051 | 820.09 ± 0.11 | 1.508 ± 0.01
x1 = 0.9009 | 813.46 ± 0.11 | 2.017 ± 0.013
